The MIC is the lowest concentration that inhibits growth of the organism.

Values after ≈ are worked out from the molar mass of the structure shown. Where two headings read alike, the source gives them in different places.

Data on 4 compounds can be found in patent US20140220108A1, “COCHLEATE COMPOSITIONS AND METHODS OF MAKING AND USING SAME” (priority 2011, published 2014).

The test system of one series is F. tularensis LVS. The series is classed as cell-based, Francisella tularensis. The note with it: no treatment 3.0 ± 0.3 × 10^6.
The subject of series [1] is M. avium 101. Put plainly: M. avium 101-infected mouse peritoneal macrophages (Raw 264.7), intracellular bacteria after 4 days of treatment. The series is classed as cell-based, Mycobacterium avium. How it is done: (§1) Amikacin cochleate (Amkcch) formulations were optimized for amikacin encochleation efficiency and particle size by varying the type of PS used, the PS:drug ratio, PS:Ca ratio, and NaCl concentration. The efficacy of Amkcch against intracellular Ma infections was evaluated in vitro using mouse peritoneal macrophage infected with M. avium strains MAC 101 or MAC 109. Mouse peritoneal macrophages (Mo) Raw 264.7 cells were seeded at 10^5 cells/well. Mo monolayers were infected at ratio 1:10 for 1 h and extracellular bacteria removed. Monolayers were treated with free amikacin and/or cochleate preparations for 4 days and the number of intracellular bacteria determined. Assays were repeated three times.
(§2) The efficacy of Amkcch against, intracellular Ma infections was evaluated in vitro using mouse peritoneal macrophage infected with M. avium strains MAC 101 or MAC 109. Mouse peritoneal macrophages (Mo) Raw 264.7 cells were seeded at 10^5 cells/well. Mo monolayers were infected at ratio 1:10 for 1 hour and extracellular bacteria removed. Monolayers were treated with free amikacin and/or cochleate preparations for 4 days and the number of intracellular bacteria determined. Assays were repeated three times.
The cochleate preparations used to evaluate biological activity against Mycobacterium avium in vitro included: 1. 2.0 ml/vial of 0 M NaCl amikacin formulation with 0.5 mg/ml; 2. 2.0 ml/vial of 0.066M NaCl amikacin formulation with 0.5 mg/ml; 3. 2.0 ml/vial of 0.33M NaCl amikacin formulation with 0.5 mg/ml; 4. 2.0 ml/vial of 0.66M NaCl amikacin formulation with 0.5 mg/ml; 5. 2.0 ml/vial of 0 M NaCl placebo formulation with 5 mg PS/ml; 6. 2.0 ml/vial of placebo formulation plus amikacin with 0.5 mg/ml; and 7. 2.0 ml/vial of free amikacin in water with 0.5 mg/ml.

The test system of another series is MAC 101. Put plainly: MIC against susceptible M. avium strain MAC 101. The note with it: Mycobacterium avium, such as MAC 101.
Another series deals with MAC184 strain. Put plainly: MIC against clarithromycin-resistant clinical isolate MAC184. More on the design: species or system M. avium. The note with it: Mycobacterium avium.
A further series has as its system M. avium 109. Briefly: M. avium 109-infected mouse peritoneal macrophages (Raw 264.7), intracellular bacteria after 4 days of treatment. The series is classed as cell-based, Mycobacterium avium. The note with it: inoculum 2.4 ± 0.3 × 10^5, untreated 3.1 ± 0.6 × 10^6. The protocol:
as §1, §2
The cochleate preparations used to evaluate biological activity against Mycobacterium avium in vitro included: 1. 2.0 ml/vial of 0 M NaCl amikacin formulation with 0.5 mg/ml; 2. […]

For series [2], the system named is M. avium 101. Put plainly: Splenic bacterial counts in M. avium 101-infected C57BL/6 mice. The series is classed as in vivo, Mycobacterium avium. The conditions noted are these: 1 mg amikacin/mouse/day, 2 weeks, 3 weeks infected control 7.8 ± 0.4 × 10^7.
A further series has as its system M. avium. The note with it: cited from earlier work.
The nature of series [3]: Encochleation efficiency by lipid composition, drug in supernatant after centrifugation. The series is classed as physicochemical. The note with it: independent of the lipid composition of the PS vesicles. The protocol:
For example, incorporation of phosphatidylserine (PS) combined with 99.9% pure dioleoyl PS, 99.9% pure soy PS, 75% soy PS and 50% soy PS, were used to manufacture cochleates. The lipid composition of 99.9% pure PS was modified by the addition of sphingomyelin, phosphatidylcholine and/or cholesterol. Encochleation efficiency was determined by assaying the concentration of drug in the supernatant following centrifugation.

For the compound gentamicin [Free gentamicin], the “intracellular bacteria Day 4” value in the series with F. tularensis LVS (gentamicin 2 μg/ml) is 9.3 ± 0.3 × 10^2 CFU/ml. In the series on M. avium 101 [1] (gentamicin 30 μg/ml (30 μg/l in two rows), untreated 6.4 ± 0.5 × 10^6), the “# bacteria day 4” value is reported as 1.9 ± 0.3 × 10^5.

As to `CC[C@@H](CO)NCCN[C@@H](CC)CO` [ethambutol], the MIC in the series on MAC 101 came to 4 µg/mL (≈ 19.6 µM); against MAC184 strain it was 8 µg/mL (≈ 39.2 µM).

As to `NCC[C@H](O)C(=O)N[C@@H]1C[C@H](N)[C@@H](O[C@H]2O[C@H](CN)[C@@H](O)[C@H](O)[C@H]2O)[C@H](O)[C@H]1O[C@H]1O[C@H](CO)[C@@H](O)[C@H](N)[C@H]1O` [Free amikacin, amikacin], the “# bacteria day 4” value is reported as 5.0 ± 0.3 × 10^4 with M. avium 109 (10 μg/l); 2.9 ± 0.4 × 10^4 with M. avium 109 (20 μg/l); 3.8 ± 0.5 × 10^4 with M. avium 101 [1] (20 μg/l, inoculum 3.8 ± 0.4 × 10^5, untreated 4.9 ± 0.5 × 10^6); 4.9 ± 0.3 × 10^4 in the series with M. avium 101 [1] (inoculum 3.8 ± 0.4 × 10^5, untreated 4.9 ± 0.5 × 10^6). In addition, the CFU/spleen in the series with M. avium 101 [2] (I.P.) is reported as 9.3 ± 0.4 × 10^6 CFU/spleen; in the series on M. avium 101 [2] (oral) it was 6.9 ± 0.3 × 10^7 CFU/spleen. Besides, the frequency of resistance in the series on M. avium is 10^−11. Also, in the series on F. tularensis LVS (amikacin 4 μg/ml), the “intracellular bacteria Day 4” value is 7.6 ± 0.3 × 10^2 CFU/ml.

As for `C[C@@H]1[C@H](O)[C@@H](C)/C=C/C=C/C=C/C=C/C=C/C=C/C=C/[C@H](O[C@@H]2O[C@H](C)[C@@H](O)[C@H](N)[C@@H]2O)C[C@@H]2O[C@](O)(C[C@@H](O)C[C@@H](O)[C@H](O)CC[C@@H](O)C[C@@H](O)CC(=O)O[C@H]1C)C[C@H](O)[C@H]2C(=O)O` [AmB, Amphotericin B], the encochleation efficiency entry in series [3] is on record as “greater than 85%”.
